Measured values taken from patent US20110201659A1, “AGENT FOR PREVENTING OR TREATING ZOSTER-ASSOCIATED PAIN” (ASTELLAS PHARMA INC., priority 2008, published 2011).

Columns and labels:
[1] = system: herpes simplex virus (HSV) and VZV; settings: disclosed in Patent References 5 to 7; cited from earlier work
[2] = system: patients who underwent herpes zoster; assay: clinical evaluation of zoster-associated pain / PHN incidence (Numeric pain scale); assay type: in vivo, human; settings: for PHN incidence rate: pain scale of 3 or more on 91 days after first day of administration
From the text: The effect of compound A to prevent and treat zoster-associate pain in patients who underwent herpes zoster was clinically evaluated by monitoring the presence or absence of pain after administration of the compound A in the following manner. For the purpose, Numeric pain scale (11 points of from 0 (no pain) to 10 (a pain of more than this cannot be considered)) was used in the pain evaluation (Oxman M N, et al. N Engl J Med 2005; 352: 2271-2284).
Under informed consent with the persons themselves, 100 mg, 200 mg or 400 mg of the compound A was taken once a day for 7 days by each of the patients who underwent herpes zoster, and the pain was recorded by them day by day by the Numeric pain scale using a diary. From the diary record, the number of patients having pain scales of 3 or more on 91 days after the first day of drug administration were counted as the cases of PHN onset, and using the ratio based on the all persons to be rested as the PHN incidence rate, the effect of the compound A to prevent PHN was evaluated. As a result, the PHN incidence rate in the group which took 100 mg, 200 mg or 400 mg of the compound A was 2.0% (2 cases in 99 persons), 1.0% (1 case in 97 persons) or 3.2% (3 cases in 95 persons), respectively. Compound A inhibited the onset of PHN in 95% or more of the herpes zoster patients in the clinical evaluation.

VZV = settings: reported in Patent References 5 to 8; cited from earlier work
HSV-1 [3] = assay: HSV-1 skin infection of hairless mice: skin lesion score and histopathology of skin, spinal cord and dorsal root ganglion; assay type: in vivo, mouse
Description: Using mice, examination was carried out on the tissue damage and nerve degeneration of the skin, spinal cord and spinal cord dorsal root ganglion by HSV-1 infection. Under ether anesthesia, right side of the dorsal part of a hairless mouse (HOS: HR-1, female, 7 weeks of age at the time of infection) was scratched with a needle, and 15 μl/mouse of an HSV-1 virus liquid was added dropwise to the scratched part to be infected. While, 15 μl/mouse of a solvent instead of the HSV-1 virus liquid was added dropwise in the pseudo-infection group. The compound to be tested (N-(2,6-dimethylphenyl)-N-(2-{[4-(1,2,4-oxadiazol-3-yl)phenyl]amino}-2-oxoethyl)tetrahydro-2H-thiopyran-4-carboxamide 1,1-dioxide: hereinafter, “compound A”) was used by dissolving in a 25% Cremophor (registered trademark) EL/25% polyethylene glycol 400 aqueous solution. By setting the administration liquid volume per one administration to 10 ml/kg, each initial administration was started one day after the HSV-1 infection. Thereafter, 50 mg/kg was repeatedly administered orally twice a day for 5 days.
The skin and spinal column (including spinal cord and dorsal root ganglion) were collected at 11 or 28 days after the infection and fixed with a 10% neutral buffer formalin liquid to prepare paraffin sections. Also, specimens of spinal cord and dorsal root ganglion were prepared on the transverse plane at the level of fourth thoracic vertebra (T4) and sixth thoracic vertebra (T6). Regarding the staining, immunohistological staining for PGP 9.5 as neurite-specific antigen was carried out on the skin sections, in addition to the hematoxylin-eosin staining (HE staining).
The skin lesions which bear resemblance to herpes zoster and are developed accompanied by HSV skin infection were classified based on the skin lesion critical degrees and systemic symptoms and scored as from 0 to 7, every day from 1 day to 28 days after the infection.
Score 1: erythema, blister or scab at local region
Score 2: erythema, blister or scab at small region
Score 3: erythema, blister or scab at middle region
Score 4: strap-like blister or scab
Score 5: erosion accompanied by ulcer at middle region
Score 6: strap-like ulcer
Score 7: death or paralysis

HSV-1 [4] = assay: mouse HSV infection pain model (von Frey hair pain score, histopathology); assay type: in vivo
From the text: Examination was made on the effect of compound A upon the pain accompanied by viral infection. The mouse HSV infection pain model system on which onset of the pain similar to ZAP including acute phase and chronic phase pains has been reported was used in the evaluation of pain (Takasaki I, et al. Pain 2000; 86: 95-101, Takasaki I, et al. Jpn J. Pharmacol 2000; 83: 319-326, Takasaki I, et al. Anesthesiology 2002; 96: 1168-1174, Sasaki A, et al. Neuroscience 2007; 150: 459-466). Briefly, an area of 5×5 mm of epidermis of the lower part of the right hind leg knee joint of a hairless mouse (HOS: HR-1, female, 7 weeks of age at the time of infection) was scratched with a bundle of ten 27G intracutaneous injection needles, and 1.5×10^5 pfu/10 μL of an HSV-1 virus liquid was added dropwise thereto and spread thereon to be infected. Starting from one day after the infection, the compound A (50 mg/kg) or a solvent (25% Cremophor (registered trademark) EL/25% polyethylene glycol 400 aqueous solution) was orally administered twice a day for 5 days (5 animals each). The skin lesions were classified based on the skin lesion critical degrees and systemic symptoms and scored as from 0 to 7 (cf. the above-mentioned Example 1). […] The pain reaction of this case was evaluated as follows. […]
The pain score of each individual was calculated by averaging six scores. […]

Compound | in vivo activity [1] | PHN incidence rate ([2]; 100 mg once a day for 7 days, 99 persons) [%] | PHN incidence rate ([2]; 200 mg once a day for 7 days, 97 persons) [%] | PHN incidence rate ([2]; 400 mg once a day for 7 days, 95 persons) [%] | herpes zoster patients in whom onset of PHN was inhibited ([2]; 100, 200 or 400 mg once a day for 7 days, all dose groups) [%] | anti-viral activity on VZV (VZV) | skin lesion score (onset of herpes zoster-like skin lesions) (HSV-1 [3]; hairless mouse, HSV-1 dorsal skin infection, 50 mg/kg orally twice a day for 5 days from 1 day after infection, scored day 1-28, FIG. 1) | right dorsal root ganglion histopathology (degeneration of nerve cell, infiltration of mononuclear cell) (HSV-1 [3]; right dorsal root ganglion at 11 days after infection, HE staining, FIG. 3d) | skin histopathology, HE staining (fall off of epidermis, infiltration of mononuclear cells, regeneration of epidermis) (HSV-1 [3]; skin at 11 days after infection, 50 mg/kg orally twice a day for 5 days, FIG. 2b) | PGP 9.5 immunostaining of the skin (nerve ending in epidermis) (HSV-1 [3]; skin at 28 days after infection, versus solvent control group, FIG. 2d) | spinal cord histopathology (nerve fiber vacuolization) (HSV-1 [3]; spinal cord at 11 days after infection, HE staining, FIG. 3b) | nerve cell degeneration in right dorsal root ganglion, spinal cord right dorsal horn and right hind leg sciatic nerve bundle (HSV-1 [4]; 28 days after infection, HE staining, FIG. 5) | pain score (von Frey hair 0.4 g, infected hind leg) (HSV-1 [4]; hairless mouse, HSV-1 hind leg infection, 50 mg/kg orally twice a day for 5 days from 1 day after infection, early stage of onset and complete recovery stage of the lesion, FIG. 4B)
Cc1ccc(N(CC(=O)Nc2ccc(-c3cocn3)cc2)C(=O)C2CCS(=O)(=O)CC2)cc1 [N-(4-methylphenyl)-N-(2-{[4-(1,3-oxazol-4-yl)phenyl]amino}-2-oxoethyl)tetrahydro-2H-thiopyran-4-carboxamide 1,1-dioxide] | good in vivo activity |  |  |  |  |  |  |  |  |  |  |  | 
Cc1cccc(C)c1N(CC(=O)Nc1ccc(-c2ncon2)cc1)C(=O)C1CCS(=O)(=O)CC1 [compound A, N-(2,6-dimethylphenyl)-N-(2-{[4-(1,2,4-oxadiazol-3-yl)phenyl]amino}-2-oxoethyl)tetrahydro-2H-thiopyran-4-carboxamide 1,1-dioxide] | good in vivo activity | 2.0 | 1.0 | 3.2 | ≥ 95 | has the anti-viral activity on VZV | inhibited the onset of skin lesions | inhibited degeneration of nerve cell and infiltration of mononuclear cell | inhibited fall off of epidermis and infiltration of mononuclear cell and accelerated regeneration of epidermis | inhibition of the reduction of nerve ending | protected nerve fiber in the spinal cord | nerve cell degeneration was inhibited | increase of pain score was considerably inhibited
